Patent US20140357633A1, “COMPOUNDS FOR INHIBITING THE INTERACTION OF BCL2 WITH BINDING PARTNERS” (NOVARTIS AG, priority 2011, published 2014)
Values joined by “and” are separate entries in the source; they are usually repeats but may differ in a detail not shown here. Equal values may be shown once.

Columns and labels:
[1] = biological target: BCL-2 (binding to BAK peptide) (Homo sapiens, UniProt P10415); assay: SPR (Biacore) solution inhibition assay, BCL-2 binding to immobilized BAK peptide; conditions: biotinylated BAK peptide surface, 56 nM BCL-2, 25° C.; range = high and low IC50 values from multiple experiments; read-out: BCL2_SPR IC50 BAK
From the text: (§1) The present method includes utility of a Surface plasmon resonance (SPR)-based biosensor (Biacore™′ GE Healthcare, Uppsala, Sweden) to characterize BCL-2 inhibitors.
(§2) Biacore™ utilizes the phenomenon of surface plasmon resonance (SPR) to detect and measure binding interactions. In a typical Biacore experiment, one of the interacting molecules (ligand) is immobilized on a flexible dextran matrix while the interacting partner (analyte) is allowed to flow across that surface. A binding interaction results in an increase in mass on the sensor surface and a corresponding direct change in the refractive index of the medium in the vicinity of the sensor surface. Changes in refractive index or signal are recorded in resonance units (R.U.) Signal changes due to association and dissociation of complexes are monitored in a non-invasive manner, continuously and in real-time, the results of which are reported in the form of a sensorgram.
(§3) The SPR assay is configured to examine solution inhibition of BCL-2 binding to peptide derivatized sensor surfaces to generate IC50 values as a measure of inhibitor potency.
(§4) Biacore™ A100 (GE Healthcare, Uppsala, Sweden) was used to conduct all experiments reported herein. Sensor surface preparation and all interaction analyses experiments were performed at 25° C. Reagents were purchased from GE Healthcare. Running buffer containing 10 mM Hepes, pH7.4, 150 mM sodium chloride, 1.25 mM Dithiothreitol, 3% Dimethyl sulfoxide and 0.05% polysorbate 20 were utilized throughout all analyses.
(§5) Biotinylated BAK, BAD and NOXA peptides were diluted to 10 nM in running buffer and captured onto a sensor surface pre-derivatized with streptavidin (sensor chip SA) to peptide surface densities in the range 50-100 R.U. Peptide captured surfaces were blocked with 500 μM PEO2-Biotin.
(§6) Interaction analyses were performed by first equilibrating each sample within a 6 point three fold compound dilution series in the range 16 μM to […] with 56 nM BCL-2 for one hour during instrument start-up procedures. Protein compound mixtures were then injected over each peptide surface in parallel for 60 seconds at a flow-rate of 30 μL/min. 56 nM BCL-2 control samples were also prepared and run at regular intervals during the assay. Surface regeneration was performed at the end of each analysis cycle by two 30 second injections of 10 mM Glycine, pH 2.5, 1M Sodium Chloride, 0.05% polysorbate 20. Samples and control compound samples were run in duplicate and controls are also run at regular intervals during the assay to monitor surface and assay performance.
(§7) Data analyses are carried out using Biacore™ A100 evaluation software v1.1 to validate assay quality. Binding level report points were used relative to BCL-2 control samples to calculate % inhibition values for each compound protein mixture. […] The range of data shown in table 1 represents the high and low IC50 values obtained from multiple experiments.

[2] = biological target: BCL-2 (binding to BAD peptide) (Homo sapiens, UniProt P10415); assay: SPR (Biacore) solution inhibition assay, BCL-2 binding to immobilized BAD peptide; conditions: biotinylated BAD peptide surface, 56 nM BCL-2, 25° C.; range = high and low IC50 values from multiple experiments; read-out: BCL2_SPR IC50 BAD
From the text: as §1, §2, §3, §4, §5, §6, §7

BCL-2 (binding to BAK peptide), sequence (P10415 whole entry): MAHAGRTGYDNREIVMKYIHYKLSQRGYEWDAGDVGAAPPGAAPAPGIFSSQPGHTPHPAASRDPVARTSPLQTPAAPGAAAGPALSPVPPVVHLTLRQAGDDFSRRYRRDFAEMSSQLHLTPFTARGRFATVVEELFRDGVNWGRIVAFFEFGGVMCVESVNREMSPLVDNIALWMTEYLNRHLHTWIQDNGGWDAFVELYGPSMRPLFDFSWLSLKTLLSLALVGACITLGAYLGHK
BCL-2 (binding to BAD peptide), sequence (P10415 whole entry): as above

SMILES | IC50 [1] | IC50 [2]
CCCCN(CCCC)C(=O)c1cc(C)n(-c2ccc(NC(=O)COc3ccc4ccccc4c3)cc2C(=O)N2Cc3ccccc3C[C@H]2CO)n1 [Example 126] | 48.8 to 50.5 nM | 60 to 61.4 nM
CCCCN(CCCC)C(=O)c1cc(C)n(-c2ccc(NC(=O)CC(C(=O)O)c3ccccc3)cc2C(=O)N2Cc3ccccc3C[C@H]2CO)n1 (some centres unmarked) [Example 42] | 55 to 61.3 nM | 51.1 to 59.1 nM
CCCCN(CCCC)C(=O)c1cc(C)n(-c2ccc(NC(=O)c3cc(C(C)C)nn3CC)cc2C(=O)N2Cc3ccccc3C[C@H]2CO)n1 [Example 85] | 741 to 784 nM | 923 to 932 nM
CCCCN(CCCC)C(=O)c1cc(C)n(-c2ccc(NC(=O)[C@H](OC)c3ccc4ccccc4c3)cc2C(=O)N2Cc3ccccc3C[C@H]2CO)n1 [Example 162] | 36.1 to 36.8 nM | 43.5 to 44.3 nM
CCCCN(CCCC)C(=O)c1cc(C)n(-c2ccc(NC(=O)c3cc(-c4ccccc4)nn3-c3ccc(F)cc3)cc2C(=O)N2Cc3ccccc3C[C@H]2CO)n1 [Example 120] | 494 to 559 nM | 726 to 732 nM
CCCCN(CCCC)C(=O)c1cc(C)n(-c2ccc(NC(=O)Cc3cc(F)ccc3OC)cc2C(=O)N2Cc3ccccc3C[C@H]2CO)n1 [Example 70] | 133 to 134 nM | 143 to 158 nM
CCCCN(CCCC)C(=O)c1cc(C)n(-c2ccc(NC(=O)C3CC(=O)N(CCc4ccc(OC)c(OC)c4)C3)cc2C(=O)N2Cc3ccccc3C[C@H]2CO)n1 (some centres unmarked) [Example 104] | 252 to 256 nM | 351 to 376 nM
CCCCN(CCCC)C(=O)c1cc(C)n(-c2ccc(NC(=O)C3CC(=O)N(Cc4ccccc4Cl)C3)cc2C(=O)N2Cc3ccccc3C[C@H]2CO)n1 (some centres unmarked) [Example 41] | 75.4 to 83.3 nM | 96.4 to 97.6 nM
CCCCN(CCCC)C(=O)c1cc(C)n(-c2ccc(NC(=O)c3ccc(SC(F)(F)F)cc3)cc2C(=O)N2Cc3ccccc3C[C@H]2CO)n1 [Example 154] | 2380 to 4330 nM | 5790 to 6250 nM
CCCCN(CCCC)C(=O)c1cc(C)n(-c2ccc(NC(=O)c3cc(SC)ccc3Cl)cc2C(=O)N2Cc3ccccc3C[C@H]2CO)n1 [Example 89] | 222 to 231 nM | 282 to 288 nM
CCCCN(CCCC)C(=O)c1cc(C)n(-c2ccc(NC(=O)c3ccccc3Nc3ccccc3[N+](=O)[O-])cc2C(=O)N2Cc3ccccc3C[C@H]2CO)n1 [Example 146] | 396 to 471 nM | 467 to 500 nM
CCCCN(CCCC)C(=O)c1cc(C)n(-c2ccc(NC(=O)c3csc(N4CCOCC4)n3)cc2C(=O)N2Cc3ccccc3C[C@H]2CO)n1 [Example 122] | 237 to 257 nM | 317 to 325 nM
CCCCN(CCCC)C(=O)c1cc(C)n(-c2ccc(NC(=O)c3n[nH]c4c3CCC4)cc2C(=O)N2Cc3ccccc3C[C@H]2CO)n1 [Example 112] | 696 to 875 nM | 964 to 1030 nM
CCCCN(CCCC)C(=O)c1cc(C)n(-c2ccc(NC(=O)c3cc(S(N)(=O)=O)ccc3OC)cc2C(=O)N2Cc3ccccc3C[C@H]2CO)n1 [Example 71] | 72 to 74.7 nM | 93.5 to 99.9 nM
CCCCN(CCCC)C(=O)c1cc(C)n(-c2ccc(NC(=O)CSc3cc(C)c(Cl)cc3Cl)cc2C(=O)N2Cc3ccccc3C[C@H]2CO)n1 [Example 129] | 70.7 to 77.1 nM | 89.5 to 92.9 nM
CCCCN(CCCC)C(=O)c1cc(C)n(-c2ccc(NC(=O)c3nn(-c4ccccc4)c(=O)cc3O)cc2C(=O)N2Cc3ccccc3C[C@H]2CO)n1 [Example 94] | 30.7 to 31.1 nM | 25.7 to 31.7 nM
CCCCN(CCCC)C(=O)c1cc(C)n(-c2ccc(NC(=O)c3ccc(Oc4ccccc4)nc3)cc2C(=O)N2Cc3ccccc3C[C@H]2CO)n1 [Example 141] | 1970 to 2070 nM | 2470 to 2630 nM

SMILES | IC50 [1] | IC50 [2]
CCCCN(CCCC)C(=O)c1cc(C)n(-c2ccc(NC(=O)c3[nH]c4ccccc4c3-c3ccccc3)cc2C(=O)N2Cc3ccccc3C[C@H]2CO)n1 [Example 148] | 595 to 598 nM | 619 to 638 nM
CCCCN(CCCC)C(=O)c1cc(C)n(-c2ccc(NC(=O)c3cc(F)ccc3C(F)(F)F)cc2C(=O)N2Cc3ccccc3C[C@H]2CO)n1 [Example 145] | 1250 to 1270 nM and 964 to 1220 nM | 1670 nM and 1170 to 1220 nM
CCCCN(CCCC)C(=O)c1cc(C)n(-c2ccc(NC(=O)C3=CC(c4ccccc4)NC(=O)N3)cc2C(=O)N2Cc3ccccc3C[C@H]2CO)n1 (some centres unmarked) [Example 51] | 122 to 126 nM | 155 to 158 nM
CCCCN(CCCC)C(=O)c1cc(C)n(-c2ccc(NC(=O)Cc3cccc4ccccc34)cc2C(=O)N2Cc3ccccc3C[C@H]2CO)n1 [Example 3, (S)—N,N-dibutyl-1-(2-(3-(hydroxymethyl)-1,2,3,4-tetrahydroisoquinoline-2-carbonyl)-4-(2-(naphthalen-1-yl)acetamido)phenyl)-5-methyl-1H-pyrazole-3-carboxamide] | 44.4 to 52.4 nM | 48.9 to 58 nM
CCCCN(CCCC)C(=O)c1cc(C)n(-c2ccc(NC(=O)c3c(C)n(C)n(-c4ccccc4)c3=O)cc2C(=O)N2Cc3ccccc3C[C@H]2CO)n1 [Example 73] | 58.7 to 82.9 nM | 74.1 to 100 nM
CCCCN(CCCC)C(=O)c1cc(C)n(-c2ccc(NC(=O)c3ccc4c(C)c(C)[nH]c4c3)cc2C(=O)N2Cc3ccccc3C[C@H]2CO)n1 [Example 86] | 432 to 440 nM | 611 to 628 nM
CCCCN(CCCC)C(=O)c1cc(C)n(-c2ccc(NC(=O)COc3cccnc3)cc2C(=O)N2Cc3ccccc3C[C@H]2CO)n1 [Example 32] | 203 to 205 nM | 234 to 245 nM
CCCCN(CCCC)C(=O)c1cc(C)n(-c2ccc(NC(=O)Cc3ccccc3)cc2C(=O)N2Cc3ccccc3C[C@H]2CO)n1 [Example 5] | 98 to 134 nM | 95.9 to 129 nM
CCCCN(CCCC)C(=O)c1cc(C)n(-c2ccc(NC(=O)c3cc(OC)ccc3O)cc2C(=O)N2Cc3ccccc3C[C@H]2CO)n1 [Example 153] | 393 to 448 nM | 438 to 511 nM
CCCCN(CCCC)C(=O)c1cc(C)n(-c2ccc(NC(=O)C(C)(C)CC(=O)O)cc2C(=O)N2Cc3ccccc3C[C@H]2CO)n1 [Example 39] | 106 to 124 nM | 143 to 166 nM
CCCCN(CCCC)C(=O)c1cc(C)n(-c2ccc(NC(=O)Cc3c(F)cccc3Cl)cc2C(=O)N2Cc3ccccc3C[C@H]2CO)n1 [Example 159] | 409 to 430 nM | 574 to 596 nM
CCCCN(CCCC)C(=O)c1cc(C)n(-c2ccc(NC(=O)c3cn4ccsc4n3)cc2C(=O)N2Cc3ccccc3C[C@H]2CO)n1 [Example 102] | 268 nM | 364 to 394 nM
CCCCN(CCCC)C(=O)c1cc(C)n(-c2ccc(NC(=O)Cc3cccc(Cl)c3)cc2C(=O)N2Cc3ccccc3C[C@H]2CO)n1 [Example 76] | 50.5 to 51.3 nM | 59.8 to 59.9 nM
CCCCN(CCCC)C(=O)c1cc(C)n(-c2ccc(NC(=O)Cc3ccccc3Cl)cc2C(=O)N2Cc3ccccc3C[C@H]2CO)n1 [Example 139] | 192 to 194 nM | 276 to 287 nM
CCCCN(CCCC)C(=O)c1cc(C)n(-c2ccc(NC(=O)C(Cc3ccccc3)C(=O)O)cc2C(=O)N2Cc3ccccc3C[C@H]2CO)n1 (some centres unmarked) [Example 25] | 63.4 to 72.2 nM | 67.6 to 67.8 nM
CCCCN(CCCC)C(=O)c1cc(C)n(-c2ccc(NC(=O)c3cn(C)nc3C(F)(F)F)cc2C(=O)N2Cc3ccccc3C[C@H]2CO)n1 [Example 155] | 729 to 935 nM | 778 to 972 nM
CCCCN(CCCC)C(=O)c1cc(C)n(-c2ccc(NC(=O)Cc3ccc(F)cc3Cl)cc2C(=O)N2Cc3ccccc3C[C@H]2CO)n1 [Example 158] | 436 to 500 nM | 537 to 546 nM
